Data from US7973162B2, “Modulators of muscarinic receptors” (Vertex Pharmaceuticals Incorporated, priority 2007, dated 2011).

Assays:
Assay type in all cases: cell-based
M4 muscarinic receptor = target: T1, M4 muscarinic receptor (Homo sapiens, UniProt P08173); assay: Functional mobilization of intracellular calcium (FLIPR), M4-CHO cells; details: for Emax / M4 Efficacy: 100% efficacy = maximum response obtained with the Carbachol control; for EC50: CHO cells expressing M4, calcium mobilization
T1 construct: expressed in transfected cells; host or cells: CHO (M4-CHO)
T1 sequence (P08173 1-479): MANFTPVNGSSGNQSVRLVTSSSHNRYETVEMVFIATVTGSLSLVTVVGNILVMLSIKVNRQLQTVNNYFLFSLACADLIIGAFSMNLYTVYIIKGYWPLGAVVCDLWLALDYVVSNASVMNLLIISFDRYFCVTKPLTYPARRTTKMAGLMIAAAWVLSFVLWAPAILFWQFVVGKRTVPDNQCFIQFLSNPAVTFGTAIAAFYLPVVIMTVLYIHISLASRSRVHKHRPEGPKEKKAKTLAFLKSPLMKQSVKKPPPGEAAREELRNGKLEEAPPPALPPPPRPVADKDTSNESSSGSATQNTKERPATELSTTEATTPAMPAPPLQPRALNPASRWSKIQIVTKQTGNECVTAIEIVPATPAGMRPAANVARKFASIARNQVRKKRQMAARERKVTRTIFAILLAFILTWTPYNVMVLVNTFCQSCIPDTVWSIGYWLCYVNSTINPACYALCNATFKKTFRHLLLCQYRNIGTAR
Method: (§1) Functional Mobilization of Intracellular Calcium to Determine Muscarinic Receptor Activity:
(§2) CHO cells expressing muscarinic receptors (M1 to M5) are grown as monolayers in tissue culture flasks at 37° C. in a humidified atmosphere containing 5% CO2 and passaged every 3-5 days. The growth media is Dulbecco's modified eagles medium (DMEM, Gibco Cat# 12430-054), containing 25 mM Hepes and supplemented with Fetal Bovine Serum (Hyclone, cat #SH30071.03), 0.1 mM of MEM non-essential amino acids (GIBCO, Cat #11140-050), 1 mM MEM Sodium Pyruvate (GIBCO Cat #11360-070) and 100 units/ml of Penicillin G and 100 μg/ml of Streptomycin (GIBCO Cat #15140-122). The recombinant muscarinic receptor cell lines are grown under antibiotic pressure with media containing 25 μg/ml zeocin and 500 μg/ml G418 (M1-CHO), 4 μg/ml puromycin, 50 μg/ml zeocin and 2.5 μg/ml blasticidin (M2 and M4-CHO) or 50 μg/ml zeocin and 4 μg/ml puromycin (M3 and M5-CHO).
(§3) Cells are harvested at 80-90% confluence using Versene (GIBCO Cat #15040-066), collected by centrifugation and seeded 18-24 hrs prior to running the calcium assay at a density of 5,000-10,000 cells/well in […], clear-bottomed 384-well plates (BD Biocoat, poly-D-lysine, Cat#356663). The day of the experiment, the cells are washed with a plate washer (Bioteck Instruments, ELX 405) using bath1 buffer (140-mM NaCl, 4.5-mM KCl, 2-mM CaCl2, 1-mM MgCl2, 10-mM Hepes-Na, 10-mM Glucose, pH 7.4, with NaOH) containing 1 mM Probenecid. Next, the calcium dye Fluo-3 (25 μl/well of Fluo-3 AM at 4 μM, Molecular Probes F-1241, in Bath 1 buffer containing 1 mM Probenecid) is added to the 25 μl of Bath 1 remaining in each well after the plate wash and the dye is loaded at 37° C. in the tissue culture incubator for 60-90 min. The fluorescent dye is removed using the plate washer with Bath 1 containing 1 mM Probenecid, leaving 25 μl/well of this solution after the wash. Alternatively, cells can be loaded with the calcium indicator from Molecular Devices (Calcium 3 Assay Reagents, Cat #R7181) adding 5 μl of a 5× solution dye in Bath 1 containing 1 mM Probenecid (10 ml per dye flask cat #R7182 to generate a solution 20×) to 20 μl of the same buffer. After loading for 60 min, the experiment can be run without having to remove the dye.
(§4) Compounds are prepared at a 2× fold concentration in a 96-well plate (round bottom, Costar Corning cat #3656), by reconstituting the pre-spotted compounds in bath 1 containing 1 mM probenecid. The final concentration DMSO is 0.5%, and the amount of DMSO is normalized across the assay plate. To determine an agonist action of the compounds on muscarinic receptors, the reconstituted compounds are added (25 μl compound/well) to the cell assay plate (containing 25 μl/well) using the multi-channel robotic system of the FLIPR 3 Instrument (Molecular Devices, Sunnyvale, Calif.). To determine a functional inhibitory action of the compounds on muscarinic receptors, the reconstituted compounds are added (25 μl compound/well) to the assay plate and pre-incubated for 15 min prior to adding 25 μl of Carbachol at 3× the EC80 for each muscarinic subtype. Alternatively, the compounds can be co-applied simultaneously with the agonist. In both assay modes, the fluorescence is recorded for 60 sec (excitation wavelength is […] and emission wavelength 540 nm) using the FLIPR 3 instrument.
(§5) The potency, efficacy and selectivity of the muscarinic compounds were evaluated by screening the compound activity across the whole family (M1 to M5 cells). Compounds were also screened for activity on other proteins such as other GPCRs and ion channels to determine selectivity on M4 receptors.
(§6) Examples of activities and efficacies of the muscarinic compounds of formulae (I, Ia, and Ib) on modulating M1 and M4 receptors are shown below in Table 3. […]

M2 muscarinic receptor = target: T2, M2 muscarinic receptor (Homo sapiens, UniProt P08172); assay: Functional mobilization of intracellular calcium (FLIPR), M2-CHO cells; details: for Emax / M2 Efficacy: 100% efficacy = maximum response obtained with the Carbachol control; for EC50: CHO cells expressing M2, calcium mobilization
T2 construct: expressed in transfected cells; host or cells: CHO (M2-CHO)
T2 sequence (P08172 1-466): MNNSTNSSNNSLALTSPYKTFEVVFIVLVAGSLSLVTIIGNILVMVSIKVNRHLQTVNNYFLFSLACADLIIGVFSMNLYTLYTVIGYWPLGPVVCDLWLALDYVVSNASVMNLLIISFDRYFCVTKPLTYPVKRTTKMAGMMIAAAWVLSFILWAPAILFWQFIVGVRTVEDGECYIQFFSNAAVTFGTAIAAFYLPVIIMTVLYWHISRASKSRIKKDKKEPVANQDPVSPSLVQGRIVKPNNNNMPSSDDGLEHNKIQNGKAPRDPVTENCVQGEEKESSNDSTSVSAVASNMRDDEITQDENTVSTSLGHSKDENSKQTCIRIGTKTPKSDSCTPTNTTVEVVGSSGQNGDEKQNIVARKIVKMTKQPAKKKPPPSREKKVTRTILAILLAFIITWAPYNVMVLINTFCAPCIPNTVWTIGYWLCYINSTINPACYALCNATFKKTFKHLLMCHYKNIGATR
Method: as §1, §2, §3, §4, §5, §6

M1 muscarinic receptor = target: T3, M1 muscarinic receptor (Homo sapiens, UniProt P11229); assay: Functional mobilization of intracellular calcium (FLIPR), M1-CHO cells; details: for Emax / M1 Efficacy: 100% efficacy = maximum response obtained with the Carbachol control; for EC50: CHO cells expressing M1, calcium mobilization
T3 construct: expressed in transfected cells; host or cells: CHO (M1-CHO)
T3 sequence (P11229 1-460): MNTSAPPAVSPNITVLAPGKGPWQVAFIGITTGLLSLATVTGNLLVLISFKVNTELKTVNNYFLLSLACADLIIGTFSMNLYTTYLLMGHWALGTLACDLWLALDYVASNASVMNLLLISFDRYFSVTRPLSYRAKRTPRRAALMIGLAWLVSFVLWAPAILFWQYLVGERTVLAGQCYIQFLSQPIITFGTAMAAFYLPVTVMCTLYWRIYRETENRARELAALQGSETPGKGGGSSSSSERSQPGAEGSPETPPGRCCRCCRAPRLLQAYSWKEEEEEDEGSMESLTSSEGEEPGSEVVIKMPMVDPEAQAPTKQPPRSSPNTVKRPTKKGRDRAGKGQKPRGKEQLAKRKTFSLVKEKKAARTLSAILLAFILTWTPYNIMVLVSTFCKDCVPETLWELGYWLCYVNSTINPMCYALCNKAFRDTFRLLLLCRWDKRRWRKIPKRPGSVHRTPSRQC
Method: as §1, §2, §3, §4, §5, §6

M3 muscarinic receptor = target: T4, M3 muscarinic receptor (Homo sapiens, UniProt P20309); assay: Functional mobilization of intracellular calcium (FLIPR), M3-CHO cells; details: for Emax / M3 Efficacy: 100% efficacy = maximum response obtained with the Carbachol control; for EC50: CHO cells expressing M3, calcium mobilization
T4 construct: expressed in transfected cells; host or cells: CHO (M3-CHO)
Method: as §1, §2, §3, §4, §5, §6

T4 sequence (P20309 whole entry): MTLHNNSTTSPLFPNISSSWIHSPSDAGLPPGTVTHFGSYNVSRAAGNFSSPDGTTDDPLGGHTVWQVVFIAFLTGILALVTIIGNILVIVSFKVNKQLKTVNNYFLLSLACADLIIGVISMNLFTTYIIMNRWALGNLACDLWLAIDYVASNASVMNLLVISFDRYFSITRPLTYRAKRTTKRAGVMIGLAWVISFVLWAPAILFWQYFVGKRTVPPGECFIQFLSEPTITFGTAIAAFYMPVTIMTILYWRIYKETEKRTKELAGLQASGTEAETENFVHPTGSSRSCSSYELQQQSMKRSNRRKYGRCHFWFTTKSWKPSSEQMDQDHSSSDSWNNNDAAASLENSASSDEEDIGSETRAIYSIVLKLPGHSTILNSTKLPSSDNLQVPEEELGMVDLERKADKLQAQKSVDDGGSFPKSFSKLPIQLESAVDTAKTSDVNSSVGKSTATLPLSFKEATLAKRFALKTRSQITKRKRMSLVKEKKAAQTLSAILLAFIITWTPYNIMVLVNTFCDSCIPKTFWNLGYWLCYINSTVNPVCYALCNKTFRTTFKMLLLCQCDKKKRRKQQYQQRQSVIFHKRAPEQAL

| Structure (SMILES) | Emax (M4 muscarinic receptor) [%] | EC50 (M4 muscarinic receptor) [µM] | Emax (M2 muscarinic receptor) [%] | EC50 (M2 muscarinic receptor) [µM] | Emax (M1 muscarinic receptor) [%] | EC50 (M1 muscarinic receptor) [µM] | Emax (M3 muscarinic receptor) [%] | EC50 (M3 muscarinic receptor) [µM] | M4 Efficacy (M4 muscarinic receptor) | M2 Efficacy (M2 muscarinic receptor) | M1 Efficacy (M1 muscarinic receptor) | M3 Efficacy (M3 muscarinic receptor) |
| --- | --- | --- | --- | --- | --- | --- | --- | --- | --- | --- | --- | --- |
| CCOC(=O)N1CCC(N2CCC3(CC2)C[C@H]2CC(=O)N(C)[C@H]2c2ccccc23)CC1 [Compound 12] | 25 to 100 | < 2 | 25 to 100 | < 2 | 25 to 100 | < 2 | < 25 | > 5 | – | – | – | – |
| CCOC(=O)N1CCC(N2CCC3(CC2)C[C@H]2CC(=O)N(CC(=O)O)[C@H]2c2ccccc23)CC1 [Compound 13] | 25 to 100 | > 5 | < 25 | > 5 | 25 to 100 | > 5 | < 25 | > 5 | – | – | – | – |
| c1ccc2c(c1)C1OCCC1CC21CCN(CC2CCCCC2)CC1 (stereo not shown) [Compound 14] | 25 to 100 | < 2 | < 25 | > 5 | 25 to 100 | > 5 | < 25 | > 5 | – | – | – | – |
| CN1C(=O)C[C@@H]2CC3(CCN(C4CC5CCC(C5)C4)CC3)c3ccccc3[C@@H]21 (stereo partly shown) [Compound 15] | 25 to 100 | < 2 | < 25 | > 5 | 25 to 100 | 2 to 5 | < 25 | > 5 | – | – | – | – |
| COCCN1C(=O)C[C@@H]2CC3(CCN(C4CCCCC4)CC3)c3ccccc3[C@@H]21 [Compound 16] | 25 to 100 | < 2 | < 25 | > 5 | < 25 | > 5 | < 25 | > 5 | – | – | – | – |
| CCOC(=O)N1CCC(N2CCC3(CC2)C[C@H]2CC(=O)N[C@H]2c2ccccc23)CC1 [Compound 17] | – | < 2 | – | < 2 | – | < 2 | – | > 5 | ++ (efficacy was calculated to be from 100% to 25%) | ++ (efficacy was calculated to be from 100% to 25%) | ++ (efficacy was calculated to be from 100% to 25%) | + (efficacy was calculated to be less than 25%) |
| O=C1CC2CC3(CCN(CC4CCCCC4)CC3)c3ccccc3C2O1 (stereo not shown) [Compound 18] | 25 to 100 | < 2 | 25 to 100 | > 5 | 25 to 100 | < 2 | < 25 | > 5 | – | – | – | – |
| O=C1C[C@@H]2CC3(CCN(C4CCCCC4)CC3)c3ccccc3[C@@H]2N1 [Compound 19] | – | < 2 | – | 2 to 5 | – | < 2 | – | > 5 | ++ (efficacy was calculated to be from 100% to 25%) | ++ (efficacy was calculated to be from 100% to 25%) | ++ (efficacy was calculated to be from 100% to 25%) | + (efficacy was calculated to be less than 25%) |
| O=C1CC2CC3(CCN(C4CCCCC4)CC3)c3ccccc3C2O1 (stereo not shown) [Compound 21] | 25 to 100 | < 2 | 25 to 100 | > 5 | 25 to 100 | < 2 | < 25 | > 5 | – | – | – | – |
| COCCN1C(=O)C[C@@H]2CC3(CCN(CC4CCCCC4)CC3)c3ccccc3[C@@H]21 [Compound 22] | 25 to 100 | < 2 | < 25 | > 5 | 25 to 100 | 2 to 5 | < 25 | > 5 | – | – | – | – |
| CN1C(=O)C[C@@H]2CC3(CCN(C4CCCCC4)CC3)c3ccccc3[C@@H]21 [Compound 23] | 25 to 100 | < 2 | 25 to 100 | < 2 | 25 to 100 | < 2 | < 25 | > 5 | – | – | – | – |
